# Assay results published in patent US20250320247A1, “NOVEL D-AMINO ACID DERIVATIVE AND PHARMACEUTICAL COMPOSITION COMPRISING SAME” (SENELIX CO., LTD., priority 2022, published 2025).
# Non-standard residues stand in square brackets, D forms with d. Residues, ends and D or L forms follow the SMILES beside them.
# Assays:
# [1] = tested on: corneal damage-induced Sprague-Dawley rats; test: Corneal damage model: histopathological examination (H&E) of inflammatory cell infiltration; assay type: in vivo; settings: 10 μL/eye, 3 times a day for 7 days, day 7
# Procedure: Corneal damage was induced in pathogen-free (SPF) Sprague-Dawley rats (male, 7 weeks old) [Koatech, Korea]. Specifically, after anesthetizing the rats, a filter paper soaked in 2 μL of 0.1 M NaOH solution was applied to the center of the cornea of the right eye for about 10 seconds, and then washed with physiological saline. The body weight of the corneal damage-induced rats was measured, and they were randomly divided into groups G2 to G6 as shown in Table 2 so that the average body weight of each group was distributed uniformly. G1 is a normal control group in which corneal damage was not induced. […]
# On the day of autopsy (day 7), the animal was euthanized, and the eyeball was removed to include the conjunctiva and fixed in a 10% neutral buffered formalin solution. […] Then, the infiltration of inflammatory cells into the cornea, conjunctiva and anterior chamber was evaluated by optical microscopy (Olympus BX53, Japan). The infiltration of inflammatory cells into the corneal stroma and anterior chamber was evaluated according to the known method. […]
# [2] = tested on: TNF-α; test: In-vitro anti-inflammatory test: TNF-α production by ELISA in LPS-treated macrophages (RAW 264.7); assay type: cell-based; settings: RAW 264.7, LPS 100 ng/ml, test substance 1 μM and 10 μM, 24 hours, vs LPS-only control
# Procedure: (§1) Lipopolysaccharide (LPS)-treated macrophages (RAW 264.7) were treated with the compounds prepared in Examples 1 and 2 as test substances, respectively, and the change in the production of inflammatory cytokines (TNF-α and IL-1β) was measured by ELISA and western blotting, respectively.
# Specifically, 1×10^4 macrophages (RAW 264.7) were dispensed in each well of a 96-well plate together with 0.1 mL of Dulbecco's modified Eagle's medium (DMEM) containing 10% FBS (GIBCO) and 1% penicillin/streptomycin. After incubation for 1 day in a 5% CO2 incubator at 37° C., when the confluency of the cells reached 80% or higher, LPS (100 ng/ml) and the test substance were treated at concentrations of 1 μM and 10 μM, respectively, and incubated for 24 hours. A control group was treated only with LPS (100 ng/ml) and incubated for 24 hours. The supernatant of each test group was prepared as a sample for ELISA analysis. The production of TNF-α was investigated using an ELISA assay kit (ELISA MAX Standard Set Human TNF-α; BioLegend, #430201) and a microplate reader at 450 nm according to the manufacturer's protocol.
# [3] = tested on: corneal damage-induced Sprague-Dawley rats; test: Corneal damage model: corneal fluorescein staining score (NEI grading); assay type: in vivo; settings: 10 μL/eye, 3 times a day; for corneal fluorescein staining score vs normal control group (G1): 6 hours to 5 days, p<0.01; for corneal fluorescein staining score vs induced control (G2): at 6 hours and on days 2 to 6, p<0.001, p<0.01 or p<0.05; for corneal fluorescein staining score vs PBS group (G3): days 3 to 6, p<0.001 or p<0.01
# Procedure: Corneal damage was induced in pathogen-free (SPF) Sprague-Dawley rats (male, 7 weeks old) [Koatech, Korea]. Specifically, after anesthetizing the rats, a filter paper soaked in 2 μL of 0.1 M NaOH solution was applied to the center of the cornea of the right eye for about 10 seconds, and then washed with physiological saline. The body weight of the corneal damage-induced rats was measured, and they were randomly divided into groups G2 to G6 as shown in Table 2 so that the average body weight of each group was distributed uniformly. G1 is a normal control group in which corneal damage was not induced.
# From the day of the corneal damage (day 0), the compound prepared in Example 2 as a test substance (i.e., acetate of the compound of the Chemical Formula 1b, hereinafter referred to as ‘Compound 1b’) was dissolved in physiological saline (PBS) at concentrations of 0.1% and 1% and instilled into the eye of the mice of G4 and G5 at 10 μL/eye, 3 times a day, for 7 days. G2 is an induced control group in which corneal damage was induced. For G3, physiological saline (PBS) was instilled 10 into the eye of the corneal damage-induced rats. For G6 (positive control), Restasis® ophthalmic solution (0.05%, containing cyclosporine) was instilled into the eye of the corneal damage-induced rats.
# (§2) Statistical analysis was performed using Prism 7.04 (GraphPad Software Inc., San Diego, CA, USA), and a p-value smaller than 0.05 was judged to be statistically significant.
# [4] = tested on: dry eye syndrome-induced C57BL/6NHsd mice; test: Dry eye syndrome model: histopathological examination (H&E) of inflammation; assay type: in vivo; settings: day 10; for level of inflammation and fibrosis vs G2 and G3 (histopathology): 2 μL/eye, 3 times a day for 10 days, p<0.001 or p<0.05
# Procedure: (§3) Dry eye syndrome was induced in specific pathogen-free (SPF) C57BL/6NHsd mice (male, 7 weeks old) [Koatech, Korea]. Specifically, during the dry eye syndrome induction period (from day −10 to day 0), scopolamine hydrobromide dissolved in physiological saline (PBS) was injected subcutaneously into the back skin of mice at a dose of 0.5 mg/0.2 mL, 4 times a day, for 10 days. After measuring the tear volume of the dry eye syndrome-induced mice, the mice were randomly divided into groups of G2 to G6 as shown in Table 1 so that the average tear volume of each group was distributed uniformly. G1 is a normal control group in which dry eye syndrome was not induced.
# (§4) From the day of the induction of dry eye syndrome (day 0), the compound prepared in Example 2 as a test substance (i.e., acetate of the compound of the Chemical Formula 1b, hereinafter referred to as ‘Compound 1b’) was dissolved in physiological saline (PBS) at concentrations of 0.1% and 1% and dropped onto the center of the right cornea of the mice of G4 and G5 3 times a day for 10 days, respectively. G2 is a dry eye syndrome-induced control group. For G3, physiological saline (PBS) was dropped onto the center of the cornea of the right eye of the mice in which dry eye syndrome was induced. For G6 (positive control group), Restasis® ophthalmic solution (0.05%, containing cyclosporine) was dropped onto the center of the cornea of the right eye of the dry eye syndrome-induced mice.
# On the day of autopsy (day 10), the animal was euthanized and the eyeball was removed to include the conjunctiva and fixed in a 10% neutral buffered formalin solution. Samples for histopathological examination were prepared through the processes of trimming, dehydration, paraffin embedding and thin-sectioning of the fixed tissue, followed by hematoxylin and eosin (H&E) staining. Then, the infiltration of inflammatory cells into the cornea, conjunctiva and anterior chamber was evaluated by optical microscopy (Olympus BX53, Japan). The inflammation of the cornea and conjunctiva was assessed according to the known method. The scoring criteria were as follows. Scores: 0 (normal), 1 (mild), 2 (moderate), 3 (severe).
# as §2
# [5] = tested on: IL-1β; test: In-vitro anti-inflammatory test: IL-1β expression by western blotting in LPS-treated macrophages (RAW 264.7); assay type: cell-based; settings: RAW 264.7, LPS 100 ng/ml, test substance 1 μM and 10 μM, 30 minutes, vs LPS-only control
# Procedure: as §1
# In addition, […] macrophages (RAW 264.7) were dispensed in each well of a 96-well plate together with 0.1 mL of Dulbecco's modified Eagle's medium (DMEM) containing 10% FBS (GIBCO) and 1% penicillin/streptomycin. After incubation for 1 day in a 5% CO2 incubator at 37° C., when the confluency of the cells reached 80% or higher, LPS (100 ng/ml) and the test substance were treated at concentrations of 1 μM and 10 μM, respectively, and incubated for 30 minutes. A control group was treated only with LPS (100 ng/ml) and incubated for 30 minutes. The cells were lysed using an NP40 cell lysis buffer and quantified by Bradford assay. Then, the expression level of IL-1β was measured by western blotting.
# [6] = tested on: dry eye syndrome-induced C57BL/6NHsd mice; test: Dry eye syndrome model: corneal fluorescein staining score (NEI grading); assay type: in vivo; settings: 2 μL/eye, 3 times a day, day 5 to day 10; for corneal fluorescein staining score vs PBS group (G3): p<0.001 or p<0.01; for corneal fluorescein staining score vs normal control (G1): p<0.01 or p<0.05
# Procedure: as §3, §4, §2
# [7] = tested on: dry eye syndrome-induced C57BL/6NHsd mice; test: Dry eye syndrome model: tear volume by phenol red thread test; assay type: in vivo; settings: 2 μL/eye, 3 times a day; for tear volume level vs normal control group (G1) / tear volume level vs induced control group (G2): days 5 and 10; for tear volume level vs induced control group (G2): p<0.001, p<0.01 or p<0.05
# Procedure: as §3, §4
# Tear volume was measured by phenol red thread (PRT) test. Specifically, on days 5 and 10 after the start of the administration of the test substance, a phenol red thread was placed in the lateral canthus of the eye for 20 seconds and then tear volume (mm) was measured.
# as §2
smiles,measurement,setting,value
NC(=O)C[C@@H](NC(=O)[C@H](N)CC(=O)O)C(=O)N[C@H](CC(=O)O)C(N)=O [Compound 1b] (H-[dD]-[dN]-[dD]-NH2),degree of infiltration of inflammatory cells into corneal keratocytes and anterior chamber vs G2 and G3,[1]; G4: 0.1% in PBS,statistically significantly lower
same,degree of infiltration of inflammatory cells into corneal keratocytes and anterior chamber vs G2 and G3,[1]; G5: 1% in PBS,statistically significantly lower
same,secretion of inflammatory cytokine TNF-α,[2],inhibited in a concentration-dependent manner
same,corneal fluorescein staining score vs normal control group (G1),[3]; G4: 0.1% in PBS,statistically significantly higher than that of the normal control group (G1)
same,corneal fluorescein staining score vs induced control (G2),[3]; G4: 0.1% in PBS,significantly lower than that of G2
same,corneal fluorescein staining score vs PBS group (G3),[3]; G4: 0.1% in PBS,significantly lower than that of G3
same,corneal fluorescein staining score vs normal control group (G1),[3]; G5: 1% in PBS,statistically significantly higher than that of the normal control group (G1)
same,corneal fluorescein staining score vs induced control (G2),[3]; G5: 1% in PBS,significantly lower than that of G2
same,corneal fluorescein staining score vs PBS group (G3),[3]; G5: 1% in PBS,significantly lower than that of G3
same,inflammation in the cornea and conjunctiva (histopathology),[4]; 0.1% test substance-administered group,no inflammation was observed
same,inflammation in the cornea and conjunctiva (histopathology),[4]; 1% test substance-administered group,no inflammation was observed
same,level of inflammation and fibrosis vs G2 and G3 (histopathology),[4]; G4: 0.1% in PBS,significantly lower as compared to G2 and G3
same,level of inflammation and fibrosis vs G2 and G3 (histopathology),[4]; G5: 1% in PBS,significantly lower as compared to G2 and G3
same,expression of inflammatory cytokine IL-1β,[5],inhibited in a concentration-dependent manner
same,corneal fluorescein staining score vs induced control (G2),[6]; G4: 0.1% in PBS,significantly lower than that of G2
same,corneal fluorescein staining score vs PBS group (G3),[6]; G4: 0.1% in PBS,statistically significantly lower than that of G3
same,corneal fluorescein staining score vs normal control (G1),[6]; G4: 0.1% in PBS,statistically significantly higher than that of G1
same,corneal fluorescein staining score vs induced control (G2),[6]; G5: 1% in PBS,significantly lower than that of G2
same,corneal fluorescein staining score vs PBS group (G3),[6]; G5: 1% in PBS,statistically significantly lower than that of G3
same,corneal fluorescein staining score vs normal control (G1),[6]; G5: 1% in PBS,statistically significantly higher than that of G1
same,tear volume level vs PBS group (G3),"[7]; G4: 0.1% in PBS, day 10, p<0.001",significantly higher than that of G3
same,tear volume level vs normal control group (G1),"[7]; G4: 0.1% in PBS, p<0.001",statistically significantly lower than that of the normal control group (G1)
same,tear volume level vs induced control group (G2),[7]; G4: 0.1% in PBS,significantly higher than that of G2
same,tear volume level vs PBS group (G3),"[7]; G5: 1% in PBS, day 5, p<0.01",statistically significantly higher than that of G3
same,tear volume level vs PBS group (G3),"[7]; G5: 1% in PBS, day 10, p<0.001",significantly higher than that of G3
same,tear volume level vs normal control group (G1),"[7]; G5: 1% in PBS, p<0.001",statistically significantly lower than that of the normal control group (G1)
same,tear volume level vs induced control group (G2),[7]; G5: 1% in PBS,significantly higher than that of G2
NC(=O)C[C@@H](NC(=O)[C@H](N)CC(=O)O)C(=O)N[C@H](CC(=O)O)C(=O)O [Chemical Formula 1a] (H-[dD]-[dN]-[dD]-OH),secretion of inflammatory cytokine TNF-α,[2],inhibited in a concentration-dependent manner
same,expression of inflammatory cytokine IL-1β,[5],inhibited in a concentration-dependent manner
